Assay results taken from patent EP4509511A1, “SUBSTITUTED SPIRO-ISOXAZOLINYL LACTAMS, SALTS THEREOF AND THEIR USE AS HERBICIDALLY ACTIVE SUBSTANCES” (Bayer Aktiengesellschaft, priority 2023, dated 2025).

What was measured:
TRZAS = assay: Post-emergence effects on crop plants; type: in vivo, Triticum aestivum; details: crop plant
From the text: (§1) Seeds of mono- and dicotyledonous weed plants and crop plants were sown, in plastic or organic planting pots, in sandy loam, covered with soil and grown in a greenhouse under controlled growth conditions. 2 to 3 weeks after sowing, the test plants were sprayed in the single-leaf stage. The compounds according to the invention, formulated in form of wettable powders (WP) or as emulsifiable concentrates (EC), were sprayed onto the green plant parts as aqueous suspension or emulsion, with the addition of 0.5% of an additive, at an application rate of 600 1 of water/ha (converted). The test plants were placed in the greenhouse for ca. 3 weeks under optimum growth conditions, and then the effect of the preparations was assessed visually in comparison with untreated controls (herbicidal effect in percent (%): 100% effect = plants have died off, 0% effect = as control plants). Tables F1 to F5 below show the effects of selected compounds of the general formula (I) according to table 1 on various crop plants and an application rate corresponding to 320 g/ha or below obtained by the experimental procedure mentioned above. Table […]: post-emergence activity at 5g/ha against ZEAMX in %

ZEAMX = assay: Post-emergence effects on crop plants; type: in vivo, Zea mays; details: crop plant
From the text: as §1

ECHCG [1] = assay: Herbicidal post-emergence action - Part II; type: in vivo, Echinochloa crus-galli; details: 20 g/ha; Table E3a
From the text: (§2) Seeds of mono- and dicotyledonous weed plants and crop plants were sown, in plastic or organic planting pots, in sandy loam, covered with soil and grown in a greenhouse under controlled growth conditions. 2 to 3 weeks after sowing, the test plants were sprayed in the single-leaf stage. The compounds according to the invention, formulated in form of wettable powders (WP) or as emulsifiable concentrates (EC), were sprayed onto the green plant parts as aqueous suspension or emulsion, with the addition of 0.5% of an additive, at an application rate of 600 1 of water/ha (converted). The test plants were placed in the greenhouse for ca. 3 weeks under optimum growth conditions, and then the effect of the preparations was assessed visually in comparison with untreated controls (herbicidal effect in percent (%): 100% effect = plants have died off, 0% effect = as control plants). Tables E1 to E10 below show the effects of selected compounds of the general formula (I) according to table 1 on various harmful plants and an application rate corresponding to 320 g/ha or below obtained by the experimental procedure mentioned above. Table E1a: post-emergence activity at 5g/ha against ABUTH in %

PHBPU = assay: Herbicidal post-emergence action - Part II; type: in vivo, Pharbitis purpurea
From the text: as §2

VIOTR = assay: Herbicidal post-emergence action - Part II; type: in vivo, Viola tricolor
From the text: as §2

VERPE [2] = assay: Herbicidal post-emergence action - Part II; type: in vivo, Veronica persica
From the text: as §2

ABUTH [3] = assay: Herbicidal post-emergence action - Part II; type: in vivo, Abutilon theophrasti
From the text: as §2

SETVI = assay: Herbicidal post-emergence action - Part II; type: in vivo, Setaria viridis
From the text: as §2

AMARE [4] = assay: Herbicidal post-emergence action - Part II; type: in vivo, Amaranthus retroflexus
From the text: as §2

MATIN [5] = assay: Herbicidal post-emergence action - Part II; type: in vivo, Matricaria inodora
From the text: as §2

GLXMA = assay: Post-emergence effects on crop plants; type: in vivo, Glycine max; details: crop plant
From the text: as §1

POLCO = assay: Herbicidal post-emergence action - Part II; type: in vivo, Polygonum convolvulus; details: 20 g/ha; Table E6
From the text: as §2

AMARE [6] = assay: Herbicidal post-emergence action - Part I; type: in vivo, Amaranthus retroflexus; details: one-leaf stage, rated visually after about 3 weeks vs untreated controls
Experimental: (§3) Seeds of mono- and dicotyledonous weed plants were placed in plastic pots in sandy loam soil (doubly sown with in each case one species of mono- or dicotyledonous weed plants per pot), covered with soil and cultivated in a greenhouse under controlled growth conditions. 2 to 3 weeks after sowing, the test plants were treated at the one-leaf stage. The compounds of the invention, formulated in the form of wettable powders (WP) or as emulsion concentrates (EC), were applied onto the green parts of the plants as aqueous suspension or emulsion with addition of 0.5% additive at a water application rate of 600 liters per hectare (converted). After the test plants had been kept in the greenhouse under optimum growth conditions for about 3 weeks, the activity of the preparations was rated visually in comparison to untreated controls. For example, 100% activity = the plants have died, 0% activity = like control plants. Tables B1 to B12, below, show the effects of selected compounds of the general formula (I) according to table 1 on various harmful plants and an application rate corresponding to 1280 g/ha or below obtained by the experimental procedure mentioned above. Table B1a: post-emergence activity at 1280g/ha against ABUTH in %

KCHSC = assay: Herbicidal post-emergence action - Part I; type: in vivo, Kochia scoparia; details: 1280 g/ha, one-leaf stage, rated visually after about 3 weeks vs untreated controls
Experimental: as §3

VERPE [7] = assay: Herbicidal post-emergence action - Part I; type: in vivo, Veronica persica; details: 1280 g/ha, one-leaf stage, rated visually after about 3 weeks vs untreated controls
Experimental: as §3

MATIN [8] = assay: Herbicidal post-emergence action - Part I; type: in vivo, Matricaria inodora; details: one-leaf stage, rated visually after about 3 weeks vs untreated controls
Experimental: as §3

ECHCG [9] = assay: Herbicidal pre-emergence action - Part I; type: in vivo, Echinochloa crus-galli; details: 1280 g/ha, visual grading after ca. 3 weeks vs untreated controls
From the text: (§4) Seeds of mono- and dicotyledonous weed plants were sown in plastic pots (double sowings with one species of mono- and one species of dicotyledonous weed plants per pot), in sandy loam, and covered with soil. The compounds according to the invention, formulated in the form of wettable powders (WP) or as emulsifiable concentrates (EC), were applied to the surface of the covering soil as aqueous suspension or emulsion, with the addition of 0.5% of an additive, at an application rate of 600 1 of water per hectare (converted). Following treatment, the pots were placed in a greenhouse and kept under optimum growth conditions for the test plants. The visual grading of the damage to the test plants was carried out after ca. 3 weeks in comparison to untreated controls (herbicidaleffectinpercent(%):100%effect=plantshavediedoff,0%effect=ascontrolplants). [formula]
(§5) Tables A1 to A12, below, show the effects of selected compounds of the general formula (I) according to table 1 on various harmful plants and an application rate corresponding to 1280 g/ha or below obtained by the experimental procedure mentioned above. Table A1: pre-emergence activity at 1280g/ha against ABUTH in %

ABUTH [10] = assay: Herbicidal post-emergence action - Part I; type: in vivo, Abutilon theophrasti; details: 320 g/ha, one-leaf stage, rated visually after about 3 weeks vs untreated controls
Experimental: as §3

STEME [11] = assay: Herbicidal pre-emergence action - Part I; type: in vivo, Stellaria media; details: 1280 g/ha, visual grading after ca. 3 weeks vs untreated controls
From the text: as §4, §5

AMARE [12] = assay: Herbicidal pre-emergence action - Part I; type: in vivo, Amaranthus retroflexus; details: 1280 g/ha, visual grading after ca. 3 weeks vs untreated controls
From the text: as §4, §5

STEME [13] = assay: Herbicidal post-emergence action - Part I; type: in vivo, Stellaria media; details: one-leaf stage, rated visually after about 3 weeks vs untreated controls
Experimental: as §3

Structure (SMILES)	post-emergence activity against TRZAS (TRZAS; 5 g/ha, Table F2a)	post-emergence activity against ZEAMX (ZEAMX; 5 g/ha, Table F1a)	post-emergence activity against PHBPU (PHBPU; 5 g/ha, Table E5a)	post-emergence activity against PHBPU (PHBPU; 20 g/ha, Table E5b)	post-emergence activity against VIOTR (VIOTR; 5 g/ha, Table E9a)	post-emergence activity against VIOTR (VIOTR; 20 g/ha, Table E9b)	post-emergence activity against VERPE (VERPE [2]; 5 g/ha, Table E8a)	post-emergence activity against VERPE (VERPE [2]; 20 g/ha, Table E8b)	post-emergence activity against ABUTH (ABUTH [3]; 5 g/ha, Table E1a)	post-emergence activity against ABUTH (ABUTH [3]; 20 g/ha, Table E1b)	post-emergence activity against SETVI (SETVI; 20 g/ha, Table E7b)	post-emergence activity against AMARE (AMARE [4]; 5 g/ha, Table E2a)	post-emergence activity against AMARE (AMARE [4]; 20 g/ha, Table E2b)	post-emergence activity against TRZAS (TRZAS; 20 g/ha, Table F2b)	post-emergence activity against MATIN (MATIN [5]; 20 g/ha, Table E4b)	post-emergence activity against POLCO (POLCO)	also measured
Cn1c(C(F)(F)F)cc(=O)n(-c2cc(C3=NOC4(CCCN(Cc5c(F)cccc5F)C4=O)C3)c(Cl)cc2F)c1=O (racemic) [Compound I-6]	20%	10%	100%	100%	100%	100%	80%	80%	100%	100%	100%	100%	100%				post-emergence activity against ZEAMX (ZEAMX; 20 g/ha, Table F1b): 10%; post-emergence activity against ECHCG (ECHCG [1]): 80%
Cn1c(C(F)(F)F)cc(=O)n(-c2cc(C3=NOC4(CCN(Cc5ccccc5Cl)C4=O)C3)c(Cl)cc2F)c1=O (racemic) [Compound I-30]	20%		100%	100%	100%	100%	90%	100%	100%	100%	100%	100%	100%	20%	100%		post-emergence activity against ZEAMX (ZEAMX; 20 g/ha, Table F1b): 20%; post-emergence activity against ECHCG (ECHCG [1]): 100%
Cn1c(C(F)(F)F)cc(=O)n(-c2cc(C3=NOC4(CCN(Cc5c(F)cccc5F)C4=O)C3)c(Cl)cc2F)c1=O (racemic) [Compound I-29]	20%	20%		100%	100%	100%	100%	100%	100%	100%	80%	100%	100%	20%	100%	100%	post-emergence activity against GLXMA (GLXMA; 5 g/ha, Table F4a): 10%; post-emergence activity against GLXMA (GLXMA; 20 g/ha, Table F4b): 20%; post-emergence activity against SETVI (SETVI; 5 g/ha, Table E7a): 80%
COc1ncccc1C1=NOC2(CCN(Cc3cccc(F)c3F)C2=O)C1 (racemic) [Compound I-42]																	post-emergence activity at 320g/ha against AMARE in % (AMARE [6]; 320 g/ha): 90%; post-emergence activity at 1280g/ha against AMARE in % (AMARE [6]; 1280 g/ha): 90%; post-emergence activity at 1280g/ha against KCHSC in % (KCHSC): 90%; post-emergence activity at 1280g/ha against VERPE in % (VERPE [7]): 90%; post-emergence activity at 320g/ha against MATIN in % (MATIN [8]; 320 g/ha): 100%; post-emergence activity at 1280g/ha against MATIN in % (MATIN [8]; 1280 g/ha): 100%; pre-emergence activity at 1280g/ha against ECHCG in % (ECHCG [9]): 90%; post-emergence activity at 320g/ha against ABUTH in % (ABUTH [10]): 90%; pre-emergence activity at 1280g/ha against STEME in % (STEME [11]): 90%; pre-emergence activity at 1280g/ha against AMARE in % (AMARE [12]): 90%; post-emergence activity at 320g/ha against STEME in % (STEME [13]; 320 g/ha): 100%; post-emergence activity at 1280g/ha against STEME in % (STEME [13]; 1280 g/ha): 100%
Cn1c(C(F)(F)F)cc(=O)n(-c2cc(C3=NOC4(CCCN(Cc5ccccc5F)C4=O)C3)c(Cl)cc2F)c1=O (racemic) [Compound I-7]	10%	20%	100%	100%	100%	100%	100%	100%	100%	100%	100%	100%	100%	20%	80%	100%	post-emergence activity against MATIN (MATIN [5]; 5 g/ha, Table E4a): 80%
CN1CCCC2(CC(c3cc(-n4c(=O)cc(C(F)(F)F)n(C)c4=O)c(F)cc3Cl)=NO2)C1=O (racemic) [Compound I-56]	20%		90%	100%	100%	100%	80%	100%	100%	100%	90%	100%	100%	20%	100%	100%	
Cn1c(C(F)(F)F)cc(=O)n(-c2cc(C3=NOC4(CCNC4=O)C3)c(Cl)cc2F)c1=O (racemic) [Compound I-71]	0%	20%		80%	80%	80%		80%	80%	100%			100%		80%	80%	
